Measured values published in patent US20230414610A1, “THERAPIES FOR CANCER USING SMALL MOLECULES THAT BIND TO AND INHIBIT RAIL INTERACTING PROTEINS” (Texas Tech University System, priority 2020, published 2023).

Tested on: breast cancer cells
Experiment: Breast cancer cell inhibition in vitro
Type: cell-based
Conditions: by inhibiting RLIP

Row | Compound | killing of breast cancer cells
1 | O=C(N/N=C1/c2ccccc2-c2nc3nonc3nc21)c1ccccc1O [TTUHSC-SS-A4] | kill breast cancer cells at low concentrations
2 | N#Cc1nc(-c2ccccn2)c2c(c1-c1ccccc1)CCC2 [TTUHSC-SS-E4] | kill breast cancer cells at low concentrations
3 | [H]/N=C(\N)Nc1nc(-c2ccccc2)c2cc(F)ccc2n1 [TTUHSC-SS-B9] | kill breast cancer cells at low concentrations
4 | c1ccc(-c2nnc(NCc3nc4ccccc4[nH]3)c3ccccc23)cc1 [TTUHSC-SS-C4] | kill breast cancer cells at low concentrations
5 | O=c1cc(COc2cccc(-n3cnnn3)c2)c2ccccc2[nH]1 [TTUHSC-SS-C2] | kill breast cancer cells at low concentrations
